From ChEMBL document CHEMBL3603750, “Synthesis and biological evaluation of 9-N-oxamyl sialosides as Siglec-7 ligands” (Bioorg Med Chem, 2015)

These compounds were tested against T1, Sialic acid-binding Ig-like lectin 7 (Homo sapiens, UniProt Q9Y286) (assay: Potency index, ratio of IC50 for compound-1 to IC50 for test compound for binding affinity to human IgG1-fused human Siglec-7-FC (Gln19 to Gly357 residues) assessed as inhibition Siglec-7-Fc binding to RBC pre-incubated for 10 mins before 20 mins incubation with RBCs by flow cytometry).
T1 sequence (Q9Y286 whole entry, the tested form may be a part): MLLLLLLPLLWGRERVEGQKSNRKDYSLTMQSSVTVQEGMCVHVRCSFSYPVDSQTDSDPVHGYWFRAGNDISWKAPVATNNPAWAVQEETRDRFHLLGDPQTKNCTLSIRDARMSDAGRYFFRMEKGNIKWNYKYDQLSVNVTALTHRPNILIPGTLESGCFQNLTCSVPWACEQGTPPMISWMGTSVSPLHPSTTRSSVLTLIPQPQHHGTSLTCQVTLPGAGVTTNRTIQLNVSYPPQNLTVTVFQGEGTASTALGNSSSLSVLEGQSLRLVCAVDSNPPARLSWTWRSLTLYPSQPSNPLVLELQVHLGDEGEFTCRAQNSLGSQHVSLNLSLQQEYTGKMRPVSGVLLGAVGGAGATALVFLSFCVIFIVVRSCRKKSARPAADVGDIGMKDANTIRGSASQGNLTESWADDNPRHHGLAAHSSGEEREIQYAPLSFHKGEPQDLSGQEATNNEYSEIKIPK

Row | Structure (SMILES) | Ratio IC50
1 | CO[C@]1(C(=O)O)C[C@H](O)[C@@H](NC(C)=O)[C@H]([C@H](O)[C@H](O)CNC(=O)C(=O)NCc2ccccc2)O1 | 8
2 | CO[C@]1(C(=O)O)C[C@H](O)[C@@H](NC(C)=O)[C@H]([C@H](O)[C@H](O)CNC(=O)C(=O)Nc2ccccc2)O1 | 58
3 | CO[C@]1(C(=O)O)C[C@H](O)[C@@H](NC(C)=O)[C@H]([C@H](O)[C@H](O)CNC(=O)C(=O)NC(C)(C)C)O1 | < 2
4 | CO[C@]1(C(=O)O)C[C@H](O)[C@@H](NC(C)=O)[C@H]([C@H](O)[C@H](O)CO)O1 | 1
5 | CO[C@]1(C(=O)O)C[C@H](O)[C@@H](NC(C)=O)[C@H]([C@H](O)[C@H](O)CNC(=O)C(=O)NCc2ccc(-c3ccccc3)cc2)O1 | 8

Further lines, results first:

Row | Ratio IC50 | Structure (SMILES)
6 | < 2 | CCNC(=O)C(=O)NC[C@@H](O)[C@@H](O)[C@@H]1O[C@@](OC)(C(=O)O)C[C@H](O)[C@H]1NC(C)=O
7 | < 2 | CCC(C)NC(=O)C(=O)NC[C@@H](O)[C@@H](O)[C@@H]1O[C@@](OC)(C(=O)O)C[C@H](O)[C@H]1NC(C)=O (mixture of isomers)
8 | < 2 | CNC(=O)C(=O)NC[C@@H](O)[C@@H](O)[C@@H]1O[C@@](OC)(C(=O)O)C[C@H](O)[C@H]1NC(C)=O
9 | < 2 | CO[C@]1(C(=O)O)C[C@H](O)[C@@H](NC(C)=O)[C@H]([C@H](O)[C@H](O)CNC(=O)C(=O)NC(C)C)O1
10 | 4.1 | CO[C@]1(C(=O)O)C[C@H](O)[C@@H](NC(C)=O)[C@H]([C@H](O)[C@H](O)CNC(=O)C(N)=O)O1

These compounds were tested against T1, Sialic acid-binding Ig-like lectin 7 (assay: Binding affinity to human IgG1-fused human Siglec-7-FC (Gln19 to Gly357 residues) assessed as inhibition Siglec-7-Fc binding to RBC pre-incubated for 10 mins before 20 mins incubation with RBCs by flow cytometry).

Row | IC50 | Structure (SMILES)
11 | 8.07 mM | CO[C@]1(C(=O)O)C[C@H](O)[C@@H](NC(C)=O)[C@H]([C@H](O)[C@H](O)CO)O1
12 | 1.64 mM | CO[C@]1(C(=O)O)C[C@H](O)[C@@H](NC(C)=O)[C@H]([C@H](O)[C@H](O)CNC(=O)C(N)=O)O1
